We go through six compounds from paper PMC12322948 (The Journal of Organic Chemistry, 2025).

Read-outs that look alike come from different tables or passages of the source.

The target in this experiment is T1, ACE2 (Homo sapiens, UniProt Q9BYF1).
T1 construct: purchased Abcam/BioVision ab273373
The experiment in a line: ACE2 inhibition assay (Abcam ACE2 Inhibitor Screening Kit, fluorogenic MCA peptide substrate). Type of experiment: biochemical. The note with it: for pIC50 exp-MLN – pIC50 exp: difference between experimental pIC50 of MLN-4760 and of the compound. As to the method: Having validated our radiosynthetic approach to (S,S)-[^18F]1 and with various fluorinated MLN-4760 analogues in hand, we next looked to evaluate the inhibitory activity of the analogues using a commercially available ACE2 inhibition assay kit (Table ) (Figure ). […] Consequently, the pIC50 values of the tested compounds were evaluated relative to our experimentally measured value for MLN-4760 in order to identify lead candidates for radiolabeling. […] The difference between the in vitro pIC^exp 50 for MLN-4760 and the pIC^exp 50 values of (S,S)-1–(S,S)-4 aligned with the difference in the in silico predicted pIC50 (pIC^pr 50) of MLN-4760 and pIC^pr 50 values of (S,S)-1–(S,S)-4. Specifically, these pIC50 differences for all 3,5-disubstituted benzyl analogues (S,S)-2, (S,S)-3, and (S,S)-4 were smaller than for the para-substituted benzyl analogue (S,S)-1, providing support for the pIC^pr 50 values (Table ). Consequently, compounds (S,S)-2, (S,S)-3 and (S,S)-4, with pIC50 values in the same range as MLN-4760, emerge as priority targets for future ACE2 PET radioligand development.
The assay for the inhibition of ACE2 was conducted using a commercially available ACE2 Inhibitor Screening Kit, purchased from Abcam (ACE2 Inhibitor Screening Kit, ab273373; Abcam/BioVision), in 96-well microplates (half area, black, flat bottomed, Greiner Bio-One International) at ambient temperature (set to 23.5 °C), total volume 100 µL. The assay employs a synthetic MCA-based peptide substrate that, upon cleavage by active ACE2, releases a fluorophore measurable by a fluorescence microplate reader (Ex/Em = 320/420 nm). Compounds to be tested were serially diluted with dilution buffer from a stock solution (5 mg/mL) in dimethyl sulfoxide (DMSO) to different concentrations.
Diluted ACE2 enzyme solution was prepared by diluting ACE2 enzyme (20 µL, provided in the kit) with dilution buffer (198 µL, provided in the kit ) and was aliquoted and stored at -20 °C.
Diluted ACE2 enzyme solution (2 µL) was added to assay buffer (48 µL ) to make ACE2 enzyme working solution. Inhibitor solution was prepared by adding the cont rol inhibitors (5 µL, 0.5 mM) to dilution buffer (50 µL) and was aliquoted and stored at -20 °C. The ACE2 substrate was aliquoted and stored at -20 °C. ACE2 substrate solution was prepared by diluting substrate (2 µL) […]
Five controls were prepared: enzyme control (positive control, inhibition free reaction), inhibitor control (negative control to test inhibition), background control (to remove fluorescence from the background), test compound control (to test whether the test compounds react with the substrate) and vehicle control (to test the effect of solvent DMSO on ACE2 enzyme activity).
For enzyme control, inhibitor control and vehicle control, and test compounds, ACE2 enzyme working solution (50 µL) was added. For background control and test compound control, assay buffer (50 µL) was added. Then, assay buffer (10 µL) was added to enzyme control and background control. DMSO solution in assay buffer (10 µL) was added to vehicle control. Inhibitor solution (10 µL) was added to inhibitor control. Test compound solution (10 µL) was added to the test compound control. For the test compound, compound solution (10 µL) with the different concentrations were added. An example of preparation can be found on Table S3.1. The mixture […]
and substrate were incubated separately at room temperature for 15 minutes before substrate (40 µL) was added to each test and mixed evenly to start the reaction. Fluorescence was monitored over 61-minutes (excitation = 320 nm, emission = 420 nm) using a Tecan microplate reader (Infinite® 200 PRO NanoQuant Microplate Reader). Fluorescence spectra were measured using the fluorescence intensity mode (excitation = 320 nm).
Table S4.1. Preparation of control and test compounds
Test Component 1 Component 2 Component 3
Vehicle control 50 µL enzyme1 10 µL DMSO (0.1 mM) 40 µL substrate2
Background control 50 µL assay buffer 10 µL assay buffer 40 µL substrate […]

Where [1] appears, read: Abcam ACE2 inhibitor screening kit, read-out: pIC50 exp (experimental pIC50) (converted).

T1 sequence (Q9BYF1 18-805): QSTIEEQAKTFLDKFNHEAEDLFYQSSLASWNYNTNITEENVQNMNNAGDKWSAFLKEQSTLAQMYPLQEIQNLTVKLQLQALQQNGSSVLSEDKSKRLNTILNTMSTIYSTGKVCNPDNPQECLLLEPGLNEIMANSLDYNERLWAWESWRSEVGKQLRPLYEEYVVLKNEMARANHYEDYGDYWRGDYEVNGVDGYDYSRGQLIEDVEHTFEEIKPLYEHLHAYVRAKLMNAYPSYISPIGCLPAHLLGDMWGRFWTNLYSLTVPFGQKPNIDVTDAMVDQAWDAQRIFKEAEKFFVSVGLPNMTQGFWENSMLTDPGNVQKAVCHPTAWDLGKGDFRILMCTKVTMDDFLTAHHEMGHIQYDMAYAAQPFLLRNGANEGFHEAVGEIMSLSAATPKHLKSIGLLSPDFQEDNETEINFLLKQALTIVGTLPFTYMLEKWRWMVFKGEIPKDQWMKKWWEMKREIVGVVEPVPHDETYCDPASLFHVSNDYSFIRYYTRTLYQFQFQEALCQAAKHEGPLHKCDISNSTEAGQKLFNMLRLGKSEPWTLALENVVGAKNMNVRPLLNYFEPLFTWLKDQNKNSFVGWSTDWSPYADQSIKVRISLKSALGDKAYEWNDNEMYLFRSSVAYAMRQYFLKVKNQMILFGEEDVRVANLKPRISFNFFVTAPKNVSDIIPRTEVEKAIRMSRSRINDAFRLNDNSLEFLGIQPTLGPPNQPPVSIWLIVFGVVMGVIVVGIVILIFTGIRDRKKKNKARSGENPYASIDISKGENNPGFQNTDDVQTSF

Regarding `CC(C)C[C@@H](N[C@@H](Cc1cncn1Cc1ccc(F)cc1)C(=O)O)C(=O)O` [(S,R)-1], the “pIC50 exp-MLN – pIC50 exp” value is recorded as 3.15. The IC50 under setting [1] is 40700 nM.

In the case of `CC(C)C[C@H](N[C@@H](Cc1cncn1Cc1ccc(F)cc1)C(=O)O)C(=O)O` [(S,S)-1], the “pIC50 exp-MLN – pIC50 exp” value came out at 0.85. Moreover, the IC50 under setting [1] was 204 nM.

Regarding `Cc1cc(F)cc(Cn2cncc2C[C@H](N[C@@H](CC(C)C)C(=O)O)C(=O)O)c1` [(S,S)-2], the IC50 was 66.1 nM and the “pIC50 exp-MLN – pIC50 exp” value was found to be 0.36.

In the case of `CC(C)C[C@H](N[C@@H](Cc1cncn1Cc1cc(F)cc(Cl)c1)C(=O)O)C(=O)O` [(S,S)-3], the IC50 was 24.5 nM and the “pIC50 exp-MLN – pIC50 exp” value is “–0.07”.

Regarding `COc1cc(Cn2cncc2C[C@H](N[C@@H](CC(C)C)C(=O)O)C(=O)O)cc(OCCF)c1` [(S,S)-4], the IC50 was 53.7 nM and the “pIC50 exp-MLN – pIC50 exp” value worked out at 0.27.

Consider `CC(C)C[C@H](N[C@@H](Cc1cncn1Cc1cc(Cl)cc(Cl)c1)C(=O)O)C(=O)O` [MLN-4760, (S,S)-2-(1-carboxy-2-(3-(3,5-dichlorobenzyl)-3H-imidazol-4-yl)-ethylamino)-4-methylpentanoic acid, reference compound], for which the IC50 is 28.8 nM and the “pIC50 exp-MLN – pIC50 exp” value turned out to be 0.00.
